Test results taken from PMC11204507, “Mechanistic Insights into the Neurotoxicity of 2,5-Dimethoxyphenethylamines (2C) and Corresponding N-(2-methoxybenzyl)phenethylamine (NBOMe) Drugs” (Journal of Xenobiotics, 2024).
Values joined by “and” are separate entries in the source; they are usually repeats but may differ in a detail not shown here. Identical values can stand only once.

How the values were obtained:
[1] = system: MAO-A and MAO-B; conditions: rat model; cited from earlier work
[2] = system: differentiated SH-SY5Y cells; test: Intracellular calcium levels, Fluo-4 AM probe; assay type: cell-based, human; conditions: control 100.0%
Method: Calcium is a vital second messenger for almost every cellular process, including cellular signaling, muscle function, neurotransmitter release, membrane function, and apoptosis. Therefore, its levels inside cells are strictly controlled to maintain cellular homeostasis. The intracellular calcium levels were measured using the cell-permeable Fluo-4 AM probe. Inside the cells, Fluo-4 AM is cleaved to its active and fluorescent form—Fluo-4—which has a high affinity for calcium ions (Ca^2⁺). Thus, its fluorescence emission is directly proportional to the concentration of calcium ions in the intracellular environment.
Therefore, the SH-SY5Y cells were seeded onto 96-well plates (25,000 cells/cm^2) following the previously described seeding and differentiation protocol. […] The average value for negative control (EGTA-treated cells) was subtracted from every other condition and then the minimum average value was subtracted from the maximum average value for every other condition. The results are presented as a percentage relative to the control cells (0 µM). A minimum of 5 independent experiments were conducted in triplicate.

[3] = drug at its EC50, immediately after exposure

## CCCSc1cc(OC)c(CCN)cc1OC.Cl [2C-T-7, 2-(2,5-dimethoxy-4-(propylthio)phenyl)ethan-1-aminium chloride]
[1]
  deamination by MAO-A and MAO-B: both isoenzymes can catalyze the deamination
[2]; drug at its EC20, immediately after exposure
  Ca2+ intracellular levels, % of control cells: 129.9%
[2]; [3]
  Ca2+ intracellular levels, % of control cells: 146.5%

## CCCSc1cc(OC)c(CCNCc2ccccc2OC)cc1OC.Cl [25T7-NBOMe, 2-(2,5-dimethoxy-4-(propylthio)phenyl)-N-(2-methoxybenzyl)ethan-1-aminium chloride]
[2]; [3]
  Ca2+ intracellular levels, % of control cells: > 300% and 320.9%

## CCSc1cc(OC)c(CCN)cc1OC.Cl [2C-T-2, 2-(4-(ethylthio)-2,5-dimethoxyphenyl)ethan-1-aminium chloride]
[1]
  deamination by MAO-A and MAO-B: both isoenzymes can catalyze the deamination
